Experimental data reported in US10870634B2, “Histone demethylase inhibitors” (CELGENE QUANTICEL RESEARCH, INC., priority 2016, dated 2020).

Key:
Jarid1B = target: T1, Jarid1B (Homo sapiens, UniProt Q9UGL1); assay: Jarid1B in vitro enzyme inhibition assay (TR-FRET); format: biochemical; conditions: 0.8 nM Jarid1B, 300 nM H3K4me3-biotin peptide, 2 μM alpha-ketoglutaric acid
T1 construct: purchased BPS Bioscience (or custom made by MolecularThroughput) 50121
T1 sequence (Q9UGL1 2-751): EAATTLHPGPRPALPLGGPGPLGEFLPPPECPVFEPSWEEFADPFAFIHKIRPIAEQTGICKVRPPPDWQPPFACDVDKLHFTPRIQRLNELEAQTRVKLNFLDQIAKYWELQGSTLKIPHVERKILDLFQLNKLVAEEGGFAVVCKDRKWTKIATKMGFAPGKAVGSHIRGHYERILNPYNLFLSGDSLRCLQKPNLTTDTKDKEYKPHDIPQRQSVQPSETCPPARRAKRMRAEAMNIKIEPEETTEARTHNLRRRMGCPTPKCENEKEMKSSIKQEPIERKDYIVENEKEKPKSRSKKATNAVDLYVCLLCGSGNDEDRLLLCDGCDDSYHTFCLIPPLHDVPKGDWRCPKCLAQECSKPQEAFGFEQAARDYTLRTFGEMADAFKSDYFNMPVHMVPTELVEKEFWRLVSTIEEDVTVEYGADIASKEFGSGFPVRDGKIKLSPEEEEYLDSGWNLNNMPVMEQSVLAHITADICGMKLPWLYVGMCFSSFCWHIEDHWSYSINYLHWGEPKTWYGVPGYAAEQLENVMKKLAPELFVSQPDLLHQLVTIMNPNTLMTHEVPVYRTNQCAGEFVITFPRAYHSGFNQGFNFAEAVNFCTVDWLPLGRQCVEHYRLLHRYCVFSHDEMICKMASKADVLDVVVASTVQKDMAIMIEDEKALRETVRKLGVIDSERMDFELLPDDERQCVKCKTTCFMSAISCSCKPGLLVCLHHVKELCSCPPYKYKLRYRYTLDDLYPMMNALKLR
Excerpt: (§1) This assay determines the ability of a test compound to inhibit Jarid1B, JMJD2C and JMJD3 demethylase activity. Baculovirus-expressed Jarid1B (GenBank Accession # NM-006618, AA 2-751) was purchased from BPS Bioscience (Cat #50121) or custom made by MolecularThroughput. Baculovirus-expressed JMJD2C (GenBank Accession # BC143571, AA 2-372) was purchased from BPS Bioscience (Cat #50105). Baculovirus-expressed JMJD3 (GenBank Accession # NM_001080424, AA1043-end) was purchased from BPS Bioscience (Cat #50115).
The ability of test compounds to inhibit the activity of Jarid1B was determined in 384-well plate format under the following reaction conditions: 0.8 nM Jarid1B, 300 nM H3K4me3-biotin labeled peptide (Anaspec cat #64357), 2 μM alpha-ketoglutaric acid in assay buffer of 50 mM HEPES, pH 7.3, 0.005% Brij35, 0.5 mM TCEP, 0.2 mg/ml BSA, 50 μM sodium L-ascorbate, and […] ammonium ironII sulfate. Reaction product was determined quantitatively by TR-FRET after the addition of detection reagent Phycolink Streptavidin-allophycocyanin (Prozyme) and Europium-anti-mono-or di-methylated historic H3 lysine 4 (H3K4me1-2) antibody (PerkinElmer) in the presence of 5 mM EDTA in LANCE detection buffer (PerkinElmer) at a final concentration of 25 nM and 1 nM, respectively.
The assay reaction was initiated by the following: 2 μl of the mixture of 900 nM H3K4me3-biotin labeled peptide and 6 μM alpha-ketoglutaric acid with 2 μl of 11-point serial diluted inhibitor in 3% DMSO was added to each well of the plate, followed by the addition of 2 μl of 2.4 nM Jarid1B to initiate the reaction. […] Plates were read by EnVisionMultilabel Reader in TR-FRET mode (excitation at 320 nm, emission at 615 nm and 665 nm) after 1 hr incubation at room temp. A ratio was calculated (665/615) for each well and fitted to determine inhibition constant (IC50).
(§2) The ability to inhibit demethylase activity was quantified and the respective IC50 value was determined for substituted triazolylpyridine derivative compounds. […]

JMJD3 = target: T2, JMJD3 (Homo sapiens, UniProt O15054); assay: JMJD3 in vitro enzyme inhibition assay (AlphaScreen); format: biochemical; conditions: 1 nM JMJD3, 250 nM H3K27me3-biotin peptide, 1 μM alpha-ketoglutaric acid
T2 construct: purchased BPS Bioscience 50115
Excerpt: as §1
The ability of test compounds to inhibit the activity of JMJD3 was determined in 384-well plate format under the following reaction conditions: 1 nM JMJD3, 250 nM H3K27me3-biotin labeled peptide (Anaspec cat #64367), 1 μM alpha-ketoglutaric acid in assay buffer of 50 mM HEPES, pH 7.3, 0.005% Brij35, 0.5 mM TCEP, 0.2 mg/ml BSA, 50 μM sodium L-ascorbate, 5 μM ammonium ironII sulfate. Reaction product is determined quantitatively by AlphaScreen detection after the addition of detection reagents anti-H3K27me1 antibody, 5 μg/ml AlphaScreen® Streptavidin-coated Donor beads, and 5 μg/ml. AlphaScreen® Protein A Acceptor beads in 50 mM HEPES, pH 7.3, 10 mM NaCl, 0.005% Brij35, 10 mM :EDTA, 2 mg/ml BSA.
The assay reaction was initiated by the following: 3 μl of the mixture of 750 nM H3K27me3-biotin labeled peptide and 3 μM alpha-ketoglutaric acid with 3 μl of 11-point serial diluted inhibitor in 3% DMSO are added to each well of 384-well Proxiplate (Perkin Elmer), followed by the addition of 3 μl of 3 nM JMJD3 to initiate the reaction. The reaction mixture was incubated at room temp for 20 min, and terminated by the addition of 3 μl of appropriate dilution of anti-H3K27me1 antibody in 50 mM HEPES, pH 7.3, 10 mM NaCl, 0.005% Brij35, 10 mM EDTA, 2 mg/ml BSA. […] Plates were read by EnVision Multilabel Reader in AlphaScreen mode after minimum 2 hr incubation at room temp. […]
as §2

T2 sequence (O15054 1043-1682 isoform O15054-1): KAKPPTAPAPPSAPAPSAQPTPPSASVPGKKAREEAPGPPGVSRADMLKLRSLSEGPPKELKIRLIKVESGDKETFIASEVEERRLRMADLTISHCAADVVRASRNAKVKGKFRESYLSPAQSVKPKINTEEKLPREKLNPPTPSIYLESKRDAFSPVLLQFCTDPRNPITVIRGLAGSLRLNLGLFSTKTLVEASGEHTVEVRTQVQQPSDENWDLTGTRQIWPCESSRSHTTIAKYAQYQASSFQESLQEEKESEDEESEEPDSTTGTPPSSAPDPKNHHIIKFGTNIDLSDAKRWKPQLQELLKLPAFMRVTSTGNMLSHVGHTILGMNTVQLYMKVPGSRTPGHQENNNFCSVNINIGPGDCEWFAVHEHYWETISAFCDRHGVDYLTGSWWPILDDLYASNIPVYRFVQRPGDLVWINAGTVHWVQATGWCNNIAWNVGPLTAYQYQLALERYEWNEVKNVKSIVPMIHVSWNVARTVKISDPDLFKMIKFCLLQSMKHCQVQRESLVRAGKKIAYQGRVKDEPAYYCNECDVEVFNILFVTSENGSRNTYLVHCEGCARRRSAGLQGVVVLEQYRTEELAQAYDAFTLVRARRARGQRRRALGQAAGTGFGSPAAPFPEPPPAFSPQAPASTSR

IC50 (Jarid1B) | IC50 (JMJD3) | SMILES
> 10 µM | > 10 µM | FC(F)(F)c1[nH]nnc1-c1ccncc1NCC1CCCc2ccccc21 (stereo not drawn) [Example 3, N-[(1,2,3,4-tetrahydronaphthalen-1-yl)methyl]-4-[5-(trifluoromethyl)-1H-1,2,3-triazol-4-yl]pyridine-3-amine]
> 10 µM | > 10 µM | Fc1ccc(Cl)cc1Nc1cnccc1-c1nn[nH]c1C(F)(F)F [Example 2, N-(5-chloro-2-fluorophenyl)-4-[5-(trifluoromethyl)-1H-1,2,3-triazol-4-yl]pyridin-3-amine]
> 10 µM | > 10 µM | Fc1cnccc1-c1nn[nH]c1C(F)(F)F [Example 1, 3-fluoro-4-[5-(trifluoromethyl)-1H-1,2,3-triazol-4-yl]pyridine]
